Patent publication US5795615A, “Process for producing metal carboxylates for use as animal feed supplements” (priority 1995, dated 1998)

Experiments:
[1] = Comparative zinc bioavailability: growth parameters and zinc levels in blood and tibia ash of broilers; conditions: for Relative Biological Availability (%): Ending body weight (lbs) 21 days / Relative Biological Availability (%): Body weight gain (lbs) 21 days: broilers fed 21 days; for Relative Biological Availability (%): Ending body weight (lbs) 21 days: relative to zinc sulfate arbitrarily set at 100%, superscripts: means in a row without common superscript differ (P < 0.05, LSD)
Protocol: Each zinc treatment was replicated eight times and each pen contained ten male birds.
Basal feeds and zinc compound were mixed in a horizontal feed mixer providing the desired ingredient composition as shown in Table 4. The broilers were fed the rations for 21 days. Feed weights were taken during the trial. Body weights were measured at the beginning and at the end of the trial. On day 21, zinc levels in the blood and tibia ash were determined. The assay procedures for total tibia zinc content or concentration to assess zinc utilization are similar to those used by Wedekind et al., J. Anim. Sci., 70:178-187 (1992). The data were analyzed according to the SAS statistical package.
Chick growth parameters and zinc levels in the blood and tibia ash were used as criteria to determine the biological availability of zinc. […] The biological availability of zinc sulfate was arbitrarily set at 100%.

[2] = cited from earlier work
[3] = relative to zinc sulfate set at 100%, superscripts: P < 0.05, LSD
[4] = broilers, relative to zinc sulfate set at 100%, superscripts: P < 0.05, LSD
[5] = broilers, day 21, relative to zinc sulfate set at 100%, superscripts: P < 0.05, LSD

| Structure (SMILES) | Relative Biological Availability (%): Ending body weight (lbs) 21 days [1] | Relative Biological Availability (%): Body weight gain (lbs) 21 days [1, 3] | Relative Biological Availability (%): Feed conversion (corr.) 3-21 days [1, 4] | Relative Biological Availability (%): Bone ash (%) 21 days [1, 5] | Relative Biological Availability (%): Plasma Zinc (μg/ml) ([1]; chicken, in vivo, 30240 min) | Relative Biological Availability (%): Tibia ash zinc (μg/g) ([1]; chicken, in vivo, 30240 min) | ending body weights compared with zinc sulfate ([1]; both the 10 mg/kg and 20 mg/kg levels) | Relative Biological Availability (%): Plasma Zinc (μg/ml) ([1]; broilers, day 21, plasma, relative to zinc sulfate set at 100%, superscripts: P < 0.05, LSD) | Relative Biological Availability (%): Tibia ash zinc (μg/g) ([1]; broilers, day 21, tibia ash, relative to zinc sulfate set at 100%, superscripts: P < 0.05, LSD) | levels of zinc in the blood and tibia ash on day 21 ([1]; day 21, zinc propionate versus zinc methionine) | solubility in water [2] |
| --- | --- | --- | --- | --- | --- | --- | --- | --- | --- | --- | --- |
| O=S(=O)([O-])[O-].[Zn+2] [Sulfate, zinc sulfate, reference compound] | 100.00% | 100.00% | 100.00% | 100.00% | 100.00% | 100.00% |  |  |  |  |  |
| CSCC[C@H](N)C(=O)O.O=S(=O)([O-])O.O=S(=O)([O-])O.[Zn+2] [Zinpro ®, Zinc methionine bisulfate] | 132.46% | 131.52% | 90.38% | 113.95% |  |  | statistically significant higher ending body weights | 124.00% | 123.99% | comparable levels of zinc |  |
| [O]=[Zn] [Zinc oxide, zinc oxide] |  |  |  |  |  |  |  |  |  |  | 0.00016 g/100 ml |
